Measurements taken from ChEMBL document CHEMBL3991601, “The target landscape of clinical kinase drugs” (Science, 2017).
The source made the active and inactive calls. For most assays here, no stated cut-off is given here; in the data, actives have a measured Kd and inactives only a lower limit.

Assays:
[1] = molecular target: Mitogen-activated protein kinase 1 (Homo sapiens, UniProt P28482)
[2] = molecular target: GTP-binding protein 4 (Homo sapiens, UniProt Q9BZE4)
[3] = molecular target: TGF-beta receptor type-2 (Homo sapiens, UniProt P37173)
[4] = molecular target: T1, Serine/threonine-protein kinase 4 (Homo sapiens, UniProt Q13043)
T1 sequence (Q13043 whole entry): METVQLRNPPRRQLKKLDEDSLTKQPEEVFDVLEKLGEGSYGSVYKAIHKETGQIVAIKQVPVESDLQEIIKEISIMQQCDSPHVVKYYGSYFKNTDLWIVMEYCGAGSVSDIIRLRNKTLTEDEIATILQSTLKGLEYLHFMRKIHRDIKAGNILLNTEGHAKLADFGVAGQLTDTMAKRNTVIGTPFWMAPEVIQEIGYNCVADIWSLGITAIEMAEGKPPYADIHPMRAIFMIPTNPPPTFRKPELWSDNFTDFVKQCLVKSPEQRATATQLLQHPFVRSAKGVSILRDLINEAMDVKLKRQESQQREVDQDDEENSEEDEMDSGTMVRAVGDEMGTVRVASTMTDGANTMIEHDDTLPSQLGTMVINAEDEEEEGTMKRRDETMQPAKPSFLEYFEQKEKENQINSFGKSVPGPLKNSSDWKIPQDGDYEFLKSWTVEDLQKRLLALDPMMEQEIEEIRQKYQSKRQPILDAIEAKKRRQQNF

[5] = molecular target: Cyclin-dependent kinase 12 (Homo sapiens, UniProt Q9NYV4)
[6] = molecular target: Casein kinase II subunit alpha' (Homo sapiens, UniProt P19784)
[7] = molecular target: Dual specificity protein kinase CLK1 (Homo sapiens, UniProt P49759)
[8] = molecular target: Cyclin-dependent kinase 13 (Homo sapiens, UniProt Q14004)
[9] = molecular target: Ephrin type-A receptor 5 (Homo sapiens, UniProt P54756)
[10] = molecular target: T2, Bone morphogenetic protein receptor type-2 (Homo sapiens, UniProt Q13873)
T2 sequence (Q13873 whole entry): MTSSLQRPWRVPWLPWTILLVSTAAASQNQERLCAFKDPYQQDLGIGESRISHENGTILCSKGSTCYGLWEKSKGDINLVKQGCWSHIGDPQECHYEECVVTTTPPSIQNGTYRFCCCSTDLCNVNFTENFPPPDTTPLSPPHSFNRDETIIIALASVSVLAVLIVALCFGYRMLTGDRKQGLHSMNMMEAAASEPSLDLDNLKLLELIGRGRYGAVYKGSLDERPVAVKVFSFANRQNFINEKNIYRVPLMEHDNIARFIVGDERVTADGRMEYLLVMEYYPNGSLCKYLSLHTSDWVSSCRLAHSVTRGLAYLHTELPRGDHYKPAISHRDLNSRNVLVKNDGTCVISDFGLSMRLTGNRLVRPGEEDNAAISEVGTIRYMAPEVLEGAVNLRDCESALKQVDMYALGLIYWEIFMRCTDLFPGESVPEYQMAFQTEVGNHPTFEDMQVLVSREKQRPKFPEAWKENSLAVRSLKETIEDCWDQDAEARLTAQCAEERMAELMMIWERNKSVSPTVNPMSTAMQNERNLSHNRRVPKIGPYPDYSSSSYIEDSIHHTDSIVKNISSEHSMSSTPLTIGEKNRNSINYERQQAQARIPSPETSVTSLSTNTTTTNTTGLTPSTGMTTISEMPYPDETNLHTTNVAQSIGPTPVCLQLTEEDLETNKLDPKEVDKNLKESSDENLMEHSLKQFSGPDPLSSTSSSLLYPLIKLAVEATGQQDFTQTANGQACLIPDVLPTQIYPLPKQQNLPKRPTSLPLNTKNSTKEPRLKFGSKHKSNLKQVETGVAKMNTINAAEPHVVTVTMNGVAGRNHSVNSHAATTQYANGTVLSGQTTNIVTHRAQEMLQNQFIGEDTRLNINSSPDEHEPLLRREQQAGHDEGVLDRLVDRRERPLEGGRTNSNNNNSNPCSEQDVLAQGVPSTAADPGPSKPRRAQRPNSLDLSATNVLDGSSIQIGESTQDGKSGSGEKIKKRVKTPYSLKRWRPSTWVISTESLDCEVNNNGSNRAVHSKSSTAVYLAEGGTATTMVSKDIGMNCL

[11] = molecular target: GTP-binding nuclear protein Ran (Homo sapiens, UniProt P62826)
[12] = molecular target: RAC-alpha serine/threonine-protein kinase (Homo sapiens, UniProt P31749)
[13] = molecular target: T3, MAP kinase-activated protein kinase 5 (Homo sapiens, UniProt Q8IW41)
T3 sequence (Q8IW41 whole entry): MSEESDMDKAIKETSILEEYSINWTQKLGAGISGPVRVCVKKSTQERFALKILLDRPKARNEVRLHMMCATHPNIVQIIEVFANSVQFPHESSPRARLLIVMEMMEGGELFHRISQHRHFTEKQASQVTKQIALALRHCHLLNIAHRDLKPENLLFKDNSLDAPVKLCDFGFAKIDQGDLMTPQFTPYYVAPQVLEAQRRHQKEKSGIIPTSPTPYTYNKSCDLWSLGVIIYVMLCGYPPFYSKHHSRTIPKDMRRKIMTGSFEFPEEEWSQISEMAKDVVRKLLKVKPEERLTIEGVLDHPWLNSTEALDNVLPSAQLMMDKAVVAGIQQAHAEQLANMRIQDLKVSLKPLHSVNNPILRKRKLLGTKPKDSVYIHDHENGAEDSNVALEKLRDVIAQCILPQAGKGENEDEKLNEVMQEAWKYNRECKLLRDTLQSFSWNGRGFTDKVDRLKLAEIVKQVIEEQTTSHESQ

[14] = molecular target: TRAF2 and NCK-interacting protein kinase (Homo sapiens, UniProt Q9UKE5)
[15] = molecular target: Mitogen-activated protein kinase 10 (Homo sapiens, UniProt P53779)

Chain of Ephrin type-A receptor 5 (P54756 whole entry): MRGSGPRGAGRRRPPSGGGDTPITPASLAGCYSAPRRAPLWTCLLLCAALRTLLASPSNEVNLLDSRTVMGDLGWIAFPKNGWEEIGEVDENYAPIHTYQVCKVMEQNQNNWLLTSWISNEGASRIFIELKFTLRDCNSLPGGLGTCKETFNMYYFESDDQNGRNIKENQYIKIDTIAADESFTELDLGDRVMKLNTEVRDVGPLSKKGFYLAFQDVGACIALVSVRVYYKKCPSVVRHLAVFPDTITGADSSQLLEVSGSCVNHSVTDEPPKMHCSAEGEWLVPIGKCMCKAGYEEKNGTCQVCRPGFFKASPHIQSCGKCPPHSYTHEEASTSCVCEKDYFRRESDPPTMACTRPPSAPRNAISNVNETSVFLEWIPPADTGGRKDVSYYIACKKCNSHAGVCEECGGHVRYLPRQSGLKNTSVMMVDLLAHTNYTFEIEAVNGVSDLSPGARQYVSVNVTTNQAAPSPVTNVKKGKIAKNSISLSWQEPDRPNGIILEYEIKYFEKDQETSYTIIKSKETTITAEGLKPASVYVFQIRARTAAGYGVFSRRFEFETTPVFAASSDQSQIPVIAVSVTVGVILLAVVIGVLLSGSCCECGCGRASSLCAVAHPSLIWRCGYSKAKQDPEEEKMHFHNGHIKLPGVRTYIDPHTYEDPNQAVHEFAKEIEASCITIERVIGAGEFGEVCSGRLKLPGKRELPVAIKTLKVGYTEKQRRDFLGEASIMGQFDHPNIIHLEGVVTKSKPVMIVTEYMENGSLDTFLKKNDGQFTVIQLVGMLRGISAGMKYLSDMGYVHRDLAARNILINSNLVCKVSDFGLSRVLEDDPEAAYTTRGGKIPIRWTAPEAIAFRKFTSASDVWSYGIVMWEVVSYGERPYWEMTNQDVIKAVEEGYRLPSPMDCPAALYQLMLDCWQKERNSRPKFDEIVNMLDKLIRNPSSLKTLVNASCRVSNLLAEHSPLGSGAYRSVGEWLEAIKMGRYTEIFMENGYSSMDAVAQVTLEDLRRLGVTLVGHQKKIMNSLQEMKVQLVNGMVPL
Chain of Dual specificity protein kinase CLK1 (P49759 whole entry): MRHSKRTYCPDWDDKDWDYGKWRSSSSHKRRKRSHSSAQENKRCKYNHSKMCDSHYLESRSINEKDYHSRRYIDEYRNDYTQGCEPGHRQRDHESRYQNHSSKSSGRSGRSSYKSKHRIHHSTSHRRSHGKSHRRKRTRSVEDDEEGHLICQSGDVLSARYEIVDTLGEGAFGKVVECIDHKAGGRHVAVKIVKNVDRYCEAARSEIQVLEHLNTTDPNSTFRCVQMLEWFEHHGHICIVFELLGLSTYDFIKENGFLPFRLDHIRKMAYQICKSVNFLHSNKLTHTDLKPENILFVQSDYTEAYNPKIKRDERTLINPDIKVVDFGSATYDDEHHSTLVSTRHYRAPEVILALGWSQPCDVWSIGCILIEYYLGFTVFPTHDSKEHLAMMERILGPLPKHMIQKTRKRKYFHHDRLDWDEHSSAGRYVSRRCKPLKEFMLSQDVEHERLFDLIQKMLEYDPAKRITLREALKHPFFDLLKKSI
Chain of Cyclin-dependent kinase 13 (Q14004 whole entry): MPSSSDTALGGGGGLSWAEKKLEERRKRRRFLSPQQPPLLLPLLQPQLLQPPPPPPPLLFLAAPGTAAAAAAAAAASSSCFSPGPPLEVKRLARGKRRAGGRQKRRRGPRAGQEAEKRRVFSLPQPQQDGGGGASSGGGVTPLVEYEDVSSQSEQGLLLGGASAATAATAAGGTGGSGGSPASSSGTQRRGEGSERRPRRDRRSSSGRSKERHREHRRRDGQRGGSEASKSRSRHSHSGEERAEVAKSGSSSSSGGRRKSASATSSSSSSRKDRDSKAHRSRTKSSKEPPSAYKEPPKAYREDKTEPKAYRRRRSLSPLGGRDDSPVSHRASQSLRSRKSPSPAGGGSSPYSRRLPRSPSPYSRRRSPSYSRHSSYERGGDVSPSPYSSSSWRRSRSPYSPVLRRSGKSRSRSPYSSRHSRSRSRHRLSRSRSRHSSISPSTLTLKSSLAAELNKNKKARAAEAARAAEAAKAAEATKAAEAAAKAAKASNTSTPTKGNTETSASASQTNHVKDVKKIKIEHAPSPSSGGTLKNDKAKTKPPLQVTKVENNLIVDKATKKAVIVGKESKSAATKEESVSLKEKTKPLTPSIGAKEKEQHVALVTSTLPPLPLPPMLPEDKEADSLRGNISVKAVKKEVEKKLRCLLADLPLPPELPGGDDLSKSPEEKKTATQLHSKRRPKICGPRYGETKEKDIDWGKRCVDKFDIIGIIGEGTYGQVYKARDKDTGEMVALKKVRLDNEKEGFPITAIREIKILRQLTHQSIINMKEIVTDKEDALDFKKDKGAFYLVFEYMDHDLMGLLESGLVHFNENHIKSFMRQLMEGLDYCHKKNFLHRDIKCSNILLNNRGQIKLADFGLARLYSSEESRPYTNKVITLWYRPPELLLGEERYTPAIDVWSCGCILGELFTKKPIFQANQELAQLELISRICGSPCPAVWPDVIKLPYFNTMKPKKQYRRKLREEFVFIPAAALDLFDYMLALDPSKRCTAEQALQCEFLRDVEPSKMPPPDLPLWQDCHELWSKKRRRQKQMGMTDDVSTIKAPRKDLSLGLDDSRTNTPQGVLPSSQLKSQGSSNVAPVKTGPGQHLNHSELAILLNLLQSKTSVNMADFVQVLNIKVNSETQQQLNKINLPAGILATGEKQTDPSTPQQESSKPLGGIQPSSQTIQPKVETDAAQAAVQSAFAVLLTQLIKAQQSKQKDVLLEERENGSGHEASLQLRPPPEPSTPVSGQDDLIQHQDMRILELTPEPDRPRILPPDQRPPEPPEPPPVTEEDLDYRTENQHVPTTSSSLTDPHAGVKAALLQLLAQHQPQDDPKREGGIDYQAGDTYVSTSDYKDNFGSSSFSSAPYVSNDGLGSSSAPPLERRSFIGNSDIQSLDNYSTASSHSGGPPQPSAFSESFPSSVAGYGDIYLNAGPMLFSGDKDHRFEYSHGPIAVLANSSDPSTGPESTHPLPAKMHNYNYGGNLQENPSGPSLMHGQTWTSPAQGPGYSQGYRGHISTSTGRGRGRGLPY
Chain of TGF-beta receptor type-2 (P37173 whole entry): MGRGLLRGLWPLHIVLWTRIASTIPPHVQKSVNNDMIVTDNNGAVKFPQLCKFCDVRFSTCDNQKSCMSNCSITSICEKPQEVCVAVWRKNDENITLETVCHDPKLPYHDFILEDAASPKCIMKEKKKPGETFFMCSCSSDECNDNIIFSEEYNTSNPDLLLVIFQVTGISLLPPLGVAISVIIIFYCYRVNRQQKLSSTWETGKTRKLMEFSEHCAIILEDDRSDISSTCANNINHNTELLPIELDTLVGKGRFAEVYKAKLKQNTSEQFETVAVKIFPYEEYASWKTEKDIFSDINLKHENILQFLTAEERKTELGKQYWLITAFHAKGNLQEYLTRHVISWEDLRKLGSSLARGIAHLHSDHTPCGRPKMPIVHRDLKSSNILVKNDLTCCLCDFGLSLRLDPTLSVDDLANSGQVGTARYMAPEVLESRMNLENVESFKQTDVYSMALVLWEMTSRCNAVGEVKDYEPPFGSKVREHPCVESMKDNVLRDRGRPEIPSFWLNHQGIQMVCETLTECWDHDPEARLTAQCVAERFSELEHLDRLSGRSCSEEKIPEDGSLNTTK
Chain of TRAF2 and NCK-interacting protein kinase (Q9UKE5 whole entry): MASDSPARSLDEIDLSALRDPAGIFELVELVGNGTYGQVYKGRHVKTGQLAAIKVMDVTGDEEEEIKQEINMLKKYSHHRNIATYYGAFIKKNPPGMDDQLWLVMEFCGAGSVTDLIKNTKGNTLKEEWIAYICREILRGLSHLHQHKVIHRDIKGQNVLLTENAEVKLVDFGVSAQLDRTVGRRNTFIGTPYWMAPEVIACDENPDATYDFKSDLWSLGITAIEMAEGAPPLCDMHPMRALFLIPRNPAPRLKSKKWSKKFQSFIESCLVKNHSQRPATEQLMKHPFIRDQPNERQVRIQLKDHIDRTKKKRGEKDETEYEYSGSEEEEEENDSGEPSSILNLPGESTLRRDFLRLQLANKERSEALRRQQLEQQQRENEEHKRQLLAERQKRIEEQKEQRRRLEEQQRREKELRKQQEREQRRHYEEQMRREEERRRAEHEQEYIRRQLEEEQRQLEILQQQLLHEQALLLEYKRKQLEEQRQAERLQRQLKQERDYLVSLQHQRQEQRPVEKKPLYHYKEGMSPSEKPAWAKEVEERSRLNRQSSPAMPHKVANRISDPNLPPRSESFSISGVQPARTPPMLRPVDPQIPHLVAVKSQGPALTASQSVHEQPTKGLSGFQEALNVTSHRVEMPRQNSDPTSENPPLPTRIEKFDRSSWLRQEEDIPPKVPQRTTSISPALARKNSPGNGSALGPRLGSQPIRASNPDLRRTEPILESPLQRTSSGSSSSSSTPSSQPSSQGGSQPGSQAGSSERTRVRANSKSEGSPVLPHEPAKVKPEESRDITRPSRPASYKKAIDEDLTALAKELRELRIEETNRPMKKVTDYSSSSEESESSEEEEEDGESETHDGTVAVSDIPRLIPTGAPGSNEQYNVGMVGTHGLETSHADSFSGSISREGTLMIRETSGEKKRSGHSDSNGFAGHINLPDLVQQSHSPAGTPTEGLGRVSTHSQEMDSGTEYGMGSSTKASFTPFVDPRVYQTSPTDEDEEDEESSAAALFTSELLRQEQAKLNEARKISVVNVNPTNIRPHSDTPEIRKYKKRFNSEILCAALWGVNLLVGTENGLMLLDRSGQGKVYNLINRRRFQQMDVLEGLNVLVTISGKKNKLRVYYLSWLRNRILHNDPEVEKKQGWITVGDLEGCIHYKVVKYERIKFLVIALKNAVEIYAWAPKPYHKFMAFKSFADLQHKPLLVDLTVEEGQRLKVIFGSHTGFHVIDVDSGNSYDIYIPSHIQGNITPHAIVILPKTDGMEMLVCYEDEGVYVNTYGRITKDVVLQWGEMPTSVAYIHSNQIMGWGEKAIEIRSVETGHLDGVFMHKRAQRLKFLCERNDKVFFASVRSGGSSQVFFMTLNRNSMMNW

Row | SMILES | Kd [1] | Kd [2] | Kd [3] | Kd [4] | Kd [5] | Kd [6] | Kd [7] | Kd [8] | Kd [9] | Kd [10] | Kd [11] | Kd [12] | Kd [13] | Kd [14] | Kd [15]
1 | CN(c1ncccc1CNc1nc(Nc2ccc3c(c2)CC(=O)N3)ncc1C(F)(F)F)S(C)(=O)=O [PF-00562271] | 1.24 µM (active) | > 30 µM (inactive) | > 30 µM (inactive) | 5.93 µM (active) | > 30 µM (inactive) | 0.998 µM (active) | 0.363 µM (active) | 4.5 µM (active) | > 30 µM (inactive) | > 30 µM (inactive) | > 30 µM (inactive) | – | – | – | –
2 | O[C@H]1CC[C@H](Nc2ncc3nc(Nc4c(F)cc(F)cc4F)n([C@H]4CCOC4)c3n2)CC1 [TANZISERTIB] | 1.23 µM (active) | > 30 µM (inactive) | > 30 µM (inactive) | > 30 µM (inactive) | > 30 µM (inactive) | > 30 µM (inactive) | > 30 µM (inactive) | > 30 µM (inactive) | > 30 µM (inactive) | > 30 µM (inactive) | > 30 µM (inactive) | > 30 µM (inactive) | > 30 µM (inactive) | > 30 µM (inactive) | –
3 | Cn1c(=O)n(-c2ccc(C(C)(C)C#N)cc2)c2c3cc(-c4cnc5ccccc5c4)ccc3ncc21 [DACTOLISIB] | > 30 µM (inactive) | > 30 µM (inactive) | > 30 µM (inactive) | > 30 µM (inactive) | > 30 µM (inactive) | > 30 µM (inactive) | > 30 µM (inactive) | > 30 µM (inactive) | > 30 µM (inactive) | > 30 µM (inactive) | > 30 µM (inactive) | – | > 30 µM (inactive) | > 30 µM (inactive) | –
4 | S=C(NCc1ccc2c(c1)OCO2)N1CCN(c2ncnc3c2oc2ccccc23)CC1 [AMUVATINIB] | > 30 µM (inactive) | > 30 µM (inactive) | – | > 30 µM (inactive) | > 30 µM (inactive) | > 30 µM (inactive) | > 30 µM (inactive) | > 30 µM (inactive) | > 30 µM (inactive) | > 30 µM (inactive) | > 30 µM (inactive) | > 30 µM (inactive) | > 30 µM (inactive) | > 30 µM (inactive) | –
5 | Cn1cnc2c(F)c(Nc3ccc(Br)cc3Cl)c(C(=O)NOCCO)cc21 [SELUMETINIB] | – | > 30 µM (inactive) | – | – | > 30 µM (inactive) | – | – | – | – | – | > 30 µM (inactive) | – | – | – | –
6 | CNC(=O)c1cc(COc2nnc(Nc3ccc(Cl)cc3)c3ccoc23)ccn1 [TELATINIB] | > 30 µM (inactive) | > 30 µM (inactive) | > 30 µM (inactive) | > 30 µM (inactive) | > 30 µM (inactive) | > 30 µM (inactive) | > 30 µM (inactive) | > 30 µM (inactive) | > 30 µM (inactive) | > 30 µM (inactive) | > 30 µM (inactive) | > 30 µM (inactive) | > 30 µM (inactive) | – | > 30 µM (inactive)
7 | COc1cc2c(N3CCN(C(=O)Nc4ccc(OC(C)C)cc4)CC3)ncnc2cc1OCCCN1CCCCC1 [TANDUTINIB] | – | > 30 µM (inactive) | – | – | > 30 µM (inactive) | – | – | – | – | – | – | – | – | – | –
8 | COc1cc2c(Oc3ccc4[nH]c(C)cc4c3F)ncnc2cc1OCCCN1CCCC1 [CEDIRANIB] | – | > 30 µM (inactive) | – | – | > 30 µM (inactive) | – | – | – | – | – | > 30 µM (inactive) | – | – | – | –
9 | CC(C)CC(=O)Nc1[nH]nc2c1CN(C(=O)C1CCN(C)CC1)C2(C)C [PHA-793887] | – | > 30 µM (inactive) | > 30 µM (inactive) | > 30 µM (inactive) | 3.66 µM (active) | > 30 µM (inactive) | 2.18 µM (active) | 3.58 µM (active) | > 30 µM (inactive) | > 30 µM (inactive) | > 30 µM (inactive) | > 30 µM (inactive) | > 30 µM (inactive) | – | > 30 µM (inactive)
10 | CC1(C)CNc2cc(NC(=O)c3cccnc3NCc3ccncc3)ccc21 [MOTESANIB] | – | > 30 µM (inactive) | – | – | > 30 µM (inactive) | – | – | – | – | – | > 30 µM (inactive) | – | – | – | –
11 | CN(C)C/C=C/C(=O)Nc1cc2c(Nc3ccc(F)c(Cl)c3)ncnc2cc1O[C@H]1CCOC1 [AFATINIB] | – | > 30 µM (inactive) | – | – | > 30 µM (inactive) | – | – | – | – | – | > 30 µM (inactive) | – | – | – | –
12 | NC(=O)c1ccc(N(C(N)=O)c2c(F)cccc2F)nc1-c1ccc(F)cc1F [VX-702] | > 30 µM (inactive) | > 30 µM (inactive) | > 30 µM (inactive) | > 30 µM (inactive) | > 30 µM (inactive) | > 30 µM (inactive) | > 30 µM (inactive) | > 30 µM (inactive) | > 30 µM (inactive) | > 30 µM (inactive) | > 30 µM (inactive) | > 30 µM (inactive) | > 30 µM (inactive) | > 30 µM (inactive) | –
13 | C[C@@]1(C(=O)Nc2ccc(F)nc2)CCCN1c1nc(Nc2cc(C3CC3)n[nH]2)c2cccn2n1 [BMS-754807] | – | > 30 µM (inactive) | – | – | > 30 µM (inactive) | – | – | – | – | – | > 30 µM (inactive) | – | – | – | –
14 | CCN1CCN(Cc2ccc(Nc3ncc(F)c(-c4cc(F)c5nc(C)n(C(C)C)c5c4)n3)nc2)CC1 [ABEMACICLIB] | > 30 µM (inactive) | > 30 µM (inactive) | > 30 µM (inactive) | > 30 µM (inactive) | > 30 µM (inactive) | 0.019 µM (active) | 0.007 µM (active) | > 30 µM (inactive) | > 30 µM (inactive) | > 30 µM (inactive) | > 30 µM (inactive) | > 30 µM (inactive) | > 30 µM (inactive) | > 30 µM (inactive) | –
15 | N#CCNC(=O)c1ccc(-c2ccnc(Nc3ccc(N4CCOCC4)cc3)n2)cc1 [MOMELOTINIB] | > 30 µM (inactive) | > 30 µM (inactive) | > 30 µM (inactive) | > 30 µM (inactive) | > 30 µM (inactive) | 0.302 µM (active) | 0.918 µM | > 30 µM (inactive) | > 30 µM (inactive) | > 30 µM (inactive) | > 30 µM (inactive) | > 30 µM (inactive) | > 30 µM (inactive) | – | –
16 | CCN(CCCOc1ccc2c(Nc3cc(CC(=O)Nc4cccc(F)c4)n[nH]3)ncnc2c1)CCOP(=O)(O)O [BARASERTIB] | > 30 µM (inactive) | > 30 µM (inactive) | > 30 µM (inactive) | > 30 µM (inactive) | > 30 µM (inactive) | 1.95 µM | > 30 µM (inactive) | > 30 µM (inactive) | > 30 µM (inactive) | > 30 µM (inactive) | > 30 µM (inactive) | > 30 µM (inactive) | > 30 µM (inactive) | > 30 µM (inactive) | –
